# Test results: patent US20210379062A1, “The use of a H3R inverse agonist for the treatment of excessive daytime sleepiness associated with parkinson's disease (PD)” (Novartis AG, priority 2018, published 2021)
# What was measured:
# [1] = First-in-human SAD/MAD study: safety, tolerability, night sleep duration, formulation effect; assay type: in vivo
# Method: An open-label, adaptive design study was performed in healthy volunteers to characterize regional brain H3 receptor occupancy following single dose of Compound (I) by using positron emission tomography (PET) with the radioligand [^11C]MK-8278 (Van Laere, K. J. et al, Journal of Nuclear Medicine, 2014, 55: 65-72). The primary objective of this study was to evaluate the plasma concentration of Compound (I) leading to 50% occupancy of H3 receptors in the brain (EC50). A total of 6 subjects were enrolled into the study and were scanned in three cohorts of two subjects each. Prior to dosing with Compound (I), each subject underwent a baseline PET scan to assess binding of [^11C]MK-8278 to H3R in the absence of Compound (I). Subjects subsequently received single oral doses of Compound (I) and then underwent two post-dose PET scans. Subjects of cohort 1 received a single oral dose of 300 mg of Compound (I), corresponding to the single dose maximum tolerated dose (MTD) determined from the Phase I study after single oral dose of Compound (I). These subjects underwent two post-dose PET scans, at 3 hours and 27 hours after dosing. The doses and scan timings for the subsequent cohorts were selected based on interim data analyses following the completion of the preceding cohort(s). Subjects of cohorts 2 and 3 received a single oral dose of 10 mg and 0.3 mg, respectively. Compound (I) was administered as capsules in cohorts 1 and 2, whereas cohort 3 received Compound (I) as an oral solution. […] The first post-dose PET scan for cohorts 2 and 3 was acquired at 3 hours and the second one at 27 hours and 8 hours after dosing, respectively.
# PK data (drug concentration over time) from Part 1 and Part 2 of the Phase I study were used in the development of the model: • 1) Part 1 is the Single Ascending Dose part; 8 different cohorts were used, with each cohort composed of 6 active subjects and 2 placebo subjects. The dose amounts used in the 8 cohorts were 0.3, 1, 3, 10, 30, 100, 300 and 800 mg. Dosing was performed at time equal to 0 hours. […]
# [2] = PK model (two-compartment, NONMEM) fitted to Phase I SAD/MAD concentrations; assay type: in vivo, human
# Method: PK data (drug concentration over time) from Part 1 and Part 2 of the Phase I study were used in the development of the model: • 1) Part 1 is the Single Ascending Dose part; 8 different cohorts were used, with each cohort composed of 6 active subjects and 2 placebo subjects. The dose amounts used in the 8 cohorts were 0.3, 1, 3, 10, 30, 100, 300 and 800 mg. Dosing was performed at time equal to 0 hours. Additional data from the Part 3 of the Phase I study (Mechanistic biomarker study, 100 mg single dose) were lumped with this group. • 2) Part 2 is the Multiple Ascending Dose part; 4 different cohorts were used, with each cohort composed of 9 active subjects and 3 placebo subjects. The dose amounts used in the 4 cohorts were 10, 30, 50 and 100 mg. Dosing was performed once a day (in the morning) at times equal to 0, 2, 3, 4, 5, 6, 7, 8, 9, 10, 11, 12, 13, 14, 15 days.
# The analysis was performed using NONMEM VII version 3 (Icon Development Solutions, Ellicott City, Md., USA), utilizing the MODESIM high performance computing environment. Pirana software was used for model editing and model submission to the cluster for running. All model building was performed using the first order conditional estimation with interaction (FOCEi) method.
# A two-compartment model with combined zeroth-order and first-order absorption was used to fit the Compound (I) concentrations. The disposition kinetics were modeled using a parameterization involving apparent oral clearance (CL/F), apparent central volume (Vc/F), apparent inter-compartment clearance (Q/F), and apparent peripheral volume (Vp/F). The duration of zero-order absorption (D), a first order absorption rate constant (Ka) and an absorption delay parameter (Lag) were used to characterize the absorption process.
# Between-subject variability in pharmacokinetic parameters Vc/F, CL/F, Vp/F and Ka was modeled using multiplicative exponential random effects of the form:
# Residual variability was modeled using a proportional error model: […]
# [3] = system: tele-methylhistamine (tMeHA); assay: Ex vivo PD determination: brain tele-methylhistamine time course in rats; parameters: species or system rat; settings: 10 mg/kg oral
# Method: Male Sprague-Dawley rats (Shanghai SLAC Laboratory Animal Co. LTD) of 6-7 weeks age were used. Animals were housed in a temperature and humidity-controlled environment on a 12 h light/dark. All animals had free access to food and water. All procedures were approved by Institutional Animal Care and Use Committee of ChemPartner Co., LTD (IACUC Protocol NO: A998HL0002).
# For bioanalysis of brain tissue tele-methylhistamine samples were further processed.
# One aliquot of the stock solution was diluted using ethanol/phosphate buffer pH 7.4 (85:15, v/v) to achieve a series working solutions. The brain homogenate was centrifuged at 12000 rpm for 5 min at 4° C. Then 10 μL supernatant of the brain homogenate sample was added to 60 μL internal standard (d3-1-methyl-histamine, 20 ng/mL). The mixture was vortexed for 2 min and centrifuged at 12000 rpm for 5 min at 4° C. Finally, 60 μL supernatant was added and 3 μL supernatant was injected into LC-MS/MS for analysis (Agilent 6410, triple quadrupole mass spectrometer, Mobile phase A: H2O— 0.1% NH3, Mobile phase B: methanol— 0.1% NH3, Column: Ultimate XB-C18 (2.1×50 mm, 5 μm, Flow rate: 0.45 mL/min, temperature: 40° C.).
compound,measurement,setting,value
"Cn1nc(N2CCC(OC(=O)N3CCN(C4CCC4)CC3)CC2)ccc1=O [Compound (I), 1-(1-methyl-6-oxo-1,6-dihydropyridazin-3-yl)piperidin-4-yl 4-cyclobutylpiperazine-1-carboxylate]",highest tolerated repeated dose,"[1]; healthy volunteer study, repeated dose",50 mg
same,"difference in PK, capsule vs oral solution","[1]; in vivo, po",no clinically relevant difference
same,single dose maximum tolerated dose (MTD),"[1]; single oral dose, Phase I study",300 mg
same,CL/F (apparent oral clearance),[2]; PK model estimate,22.8 L/h
same,D (duration of zero-order absorption),[2]; PK model estimate,0.108 h
same,Ka (first-order absorption rate constant),[2]; PK model estimate,2.44 h⁻¹
same,Lag (absorption delay),[2]; PK model estimate,0.214 h
same,Q/F (apparent inter-compartment clearance),[2]; PK model estimate,1.26 L/h
same,Residual Unexplained Variability,[2]; PK model estimate,34.8%
same,VC/F (apparent central volume),[2]; PK model estimate,121 L
same,VP/F (apparent peripheral volume),[2]; PK model estimate,18.4 L
same,Omega CL/F,[2]; between-subject variability,40.37 % CV
same,Omega Ka,[2]; between-subject variability,145 % CV
same,Omega Vc/F,[2]; between-subject variability,23.71 % CV
same,Omega Vp/F,[2]; between-subject variability,46.48 % CV
same,time at which tMeHA increase starts,[3],30 min
same,time of tMeHA peak,[3],2 h
same,tMeHA level at 8 h,[3]; 8 h,stayed slightly elevated
same,effect on tMeHA levels,[3]; brain,increased
same,duration of histamine release after compound administration,[3]; deconvolution of the PD data,about 2 h
